A short description of test [1]: Protease-catalyzed condensation study after three hours. It counts as biochemical. How it is done: In comparison to control reactions, the ability of the proteases detailed in Table 3 to catalyse siloxane condensation was screened with […]. Comparatively, the original reactions conducted in the enzyme-catalysed condensation study were performed for six days versus three hours in this study.
Prior to reaction, the glass vials were silylated. […].
TLCK inhibits trypsin by alkylating the histidine residue in the catalytic triad.

A short description of test [2]: Hydrolysis and condensation control reactions after three hours. Particulars: for condensation of trimethylethoxysilane (result in words): pH 7.0, 25° C., three hours.
Procedure: Prior to reaction, the alkoxysilane was pre-treated with sodium hydrogencarbonate due to the potential presence of residual chloro-functional silanes. The reactions were formulated with a 4:1 trimethylethoxysilane to protein weight ratio (˜1000:l alkoxysilane to trypsin mole ratio) in neutral media (pH 7.0) and conducted at 25° C. for three hours.
The target in test [3] is T1, trypsin (Bos taurus, UniProt P00760).
T1 sequence (P00760 24-246): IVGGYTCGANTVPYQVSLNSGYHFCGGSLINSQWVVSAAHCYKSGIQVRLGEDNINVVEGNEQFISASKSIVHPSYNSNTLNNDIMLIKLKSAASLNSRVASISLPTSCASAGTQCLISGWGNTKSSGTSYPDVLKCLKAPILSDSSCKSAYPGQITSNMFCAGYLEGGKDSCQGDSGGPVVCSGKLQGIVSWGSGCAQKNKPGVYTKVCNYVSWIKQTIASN
As to the kind of experiment: Trypsin-catalyzed ring opening polymerization of cyclic siloxanes. Also on record: purchased Sigma-Aldrich #T4665; host or cells: bovine pancreas. To be noted: 25° C., pH 7.0, 8 days, qualitative GC; for Cyclic Area Percent, Trimer (x = 3), Trypsin / Cyclic Area Percent, Pentamer (x = 5), Trypsin / Cyclic Area Percent, Tetramer (x = 4), Trypsin: with trypsin; for Cyclic Area Percent, Trimer (x = 3), Control / Cyclic Area Percent, Pentamer (x = 5), Control / Cyclic Area Percent, Tetramer (x = 4), Control: without trypsin. It counts as biochemical, bovine. The text has this: The ability of trypsin to catalyze the cleavage and formation of Si—O bonds during the ring opening polymerization of cyclic siloxanes was explored under mild conditions. Specifically, five cyclic siloxanes: hexamethylcyclotrisiloxane, octamethylcyclotetrasiloxane, trimethyltri(trifluoropropyl)cyclotrisiloxane, tetramethyltetra(trifluoropropyl)cyclotetrasiloxane, and tetramethyltetraphenylcyclotetrasiloxane, were selected to study how the activity of trypsin varied as a result of different steric and electronic interactions with the substrate.
The two-phase reactions were formulated with a 4:1 monomer to enzyme weight ratio and conducted at 25° C. in neutral media (pH 7.0) for 8 days. The reaction products were isolated and qualitatively analyzed by GC (Table 5).

Test [4] concerns the target T1, trypsin. The test is described as follows: Trypsin-catalyzed hydrolysis and condensation of alkoxysilanes. It counts as biochemical, bovine. The arrangement: purchased Sigma-Aldrich #T4665; host or cells: bovine pancreas. To be noted: 4:1 monomer to enzyme weight ratio, 25° C., three hours.
Test [5] in a line: Hydrolysis and condensation of trimethylethoxysilane by different sources of trypsin; effect of calcium. The format is biochemical. To be noted: for increase of yield of the condensation of trimethylsilanol with calcium: 20 mM CaCl2, pH 7.0, 25° C., three hours; for hydrolysis of trimethylethoxysilane and condensation of trimethylsilanol (result in words): pH 7.0, 25° C. An excerpt: Although various sources (e.g. mammalian, fish) of trypsin are similar (e.g. tertiary structure), their selectivity and activity may be different. […] . The reaction products were isolated and quantitatively analysed by GC (FIG. 24).
Calcium activation of trypsin induces changes in the tertiary structure of the enzyme. […] . […] The reaction products were isolated and quantitatively analysed by GC (FIG. 25).

The nature of test [6]: Enzyme-catalyzed condensation study after six days. It counts as biochemical. Particulars: water, 25° C. The text has this: This study was directed to an enzyme screen with […] in order to evaluate the ability of various enzymes to catalyze the formation of a siloxane bond. Based on the similarities of the proteins isolated from the Tethya aurantia marine sponge (silicatein), Cylindrotheca fusiformis diatom (silaffin), and Equisetum telmateia plant (biopolymer extract), a series of lipases and serine-proteases were selected as homologous proteolytic enzymes. […] […]. In this study, control reactions were defined as non-enzymatic reactions. Specifically, experiments conducted in the absence of a protein were defined as negative control reactions. Proteinaceous molecules such as bovine serum albumin and porcine γ-globulins were used to study non-specific protein catalysis.
[…]. […] (˜200 mg/mL).

With elastase: porcine pancreatic elastase, in test [1] (pH 7.0, three hours), the “condensation of trimethylsilanol (result in words)” value is “inactivity”.

Take `Cc1ccc(S(=O)(=O)N[C@@H](CCCCN)C(=O)CCl)cc1.Cl` [TLCK, N-α-p-tosyl-L-lysine chloromethyl ketone hydrochloride]: the “product yield of the α-chymotrypsin condensation reaction after TLCK treatment” value in test [1] (replicate condensation experiment) is on record as “significantly decreased”.

With poly-L-lysine, in test [1] (pH 7.0, three hours), the “condensation of trimethylsilanol (result in words)” value is recorded as “not observed”. The “hydrolysis of trimethylethoxysilane (result in words)” value in test [2] (neutral medium (pH 7.0)) was “promoted the hydrolysis”. Also, the “condensation of trimethylethoxysilane (result in words)” value (“condensation of trimethylethoxysilane” for short) in test [2] is recorded as “not observed”.

As to `c1c[nH]cn1` [imidazole], the “condensation of trimethylsilanol (result in words)” value in test [1] (pH 7.0, three hours) is reported as “not observed”. Besides, the “condensation of trimethylethoxysilane” value in test [2] is on record as “not observed”.

Turning to `C[Si]1(C)O[Si](C)(C)O[Si](C)(C)O1` [A, hexamethylcyclotrisiloxane], at trypsin [3], the “Cyclic Area Percent, Trimer (x = 3), Trypsin” value is “(100)” and the “Cyclic Area Percent, Trimer (x = 3), Control” value is “(100)”.

With `[Ca+2].[Cl-].[Cl-]` [CaCl2, calcium chloride], the “condensation of trimethylsilanol (result in words)” value in test [1] (pH 7) was “not observed”. Besides, the “condensation of trimethylethoxysilane” value in test [2] is recorded as “not observed”.

`C[Si]1(CCC(F)(F)F)O[Si](C)(CCC(F)(F)F)O[Si](C)(CCC(F)(F)F)O1` (centres unmarked) [C, trimethyltri(trifluoropropyl)cyclotrisiloxane]: at trypsin [3], the “Cyclic Area Percent, Pentamer (x = 5), Trypsin” value is recorded as “(1.0)”; the “Cyclic Area Percent, Tetramer (x = 4), Trypsin” value was “(1.9)”; the “Cyclic Area Percent, Trimer (x = 3), Trypsin” value was “(97.1)”; the “Cyclic Area Percent, Pentamer (x = 5), Control” value was “(0.8)”. On trypsin [3], the “Cyclic Area Percent, Tetramer (x = 4), Control” value is recorded as “(1.7)” and the “Cyclic Area Percent, Trimer (x = 3), Control” value is given as “(97.5)”.

Consider `Cn1ccnc1` [N-methylimidazole], for which, in test [1] (pH 7.0, three hours), the “condensation of trimethylsilanol (result in words)” value is “not observed”. Besides, in test [2], the “condensation of trimethylethoxysilane” value is listed as “not observed”.

As to `CCO[Si](C)(C)CCCOCC1CO1` (centres unmarked) [3-glycidoxypropyldimethylethoxysilane], on trypsin [4], the “trypsin-catalyzed hydrolysis and condensation (result in words)” value was “preferentially catalyze the hydrolysis and condensation”.

As for `COCCOCCOCCOCCO[Si](C)(C)C` [glycol-functional silane], on trypsin [4], the “trypsin-catalyzed hydrolysis and condensation (result in words)” value was “not definitive”.

For `C[Si]1(C)O[Si](C)(C)O[Si](C)(C)O[Si](C)(C)O1` [B, octamethylcyclotetrasiloxane], on trypsin [3], the “Cyclic Area Percent, Tetramer (x = 4), Trypsin” value is given as “(99.8)”; the “Cyclic Area Percent, Trimer (x = 3), Trypsin” value was “(0.2)”; the “Cyclic Area Percent, Tetramer (x = 4), Control” value was “(99.8)”; the “Cyclic Area Percent, Trimer (x = 3), Control” value is recorded as “(0.2)”.

Turning to `CCCCCCO[Si](C)(C)C` [trimethylhexoxysilane], the “trypsin-catalyzed hydrolysis and condensation (result in words)” value on trypsin [4] is “catalyzed the partial hydrolysis of trimethylhexoxysilane without condensation”.

In the case of `C[Si]1(C)O[Si](C)(C)O[Si](C)(O)O[Si](C)(C)O1` [heptamethylhydroxytetracyclosiloxane], the “trypsin-catalyzed hydrolysis and condensation (result in words)” value on trypsin [4] is “did not catalyze the condensation”.

`CCO[Si](C)(C)CCCN` [aminopropyldimethylethoxysilane]: the “trypsin-catalyzed hydrolysis and condensation (result in words)” value on trypsin [4] is “fully hydrolysed and condensed in the presence and absence of trypsin”.

On to `C[Si]1(CCC(F)(F)F)O[Si](C)(CCC(F)(F)F)O[Si](C)(CCC(F)(F)F)O[Si](C)(CCC(F)(F)F)O1` (centres unmarked) [D, tetramethyltetra(trifluoropropyl)cyclotetrasiloxane], for which, at trypsin [3], the “Cyclic Area Percent, Pentamer (x = 5), Trypsin” value is reported as “(5.1)”; the “Cyclic Area Percent, Tetramer (x = 4), Trypsin” value is “(94.9)”; the “Cyclic Area Percent, Trimer (x = 3), Trypsin” value is listed as “(0)”; the “Cyclic Area Percent, Pentamer (x = 5), Control” value is on record as “(3.4)”. Moreover, at trypsin [3], the “Cyclic Area Percent, Tetramer (x = 4), Control” value is recorded as “(96.3)” and the “Cyclic Area Percent, Trimer (x = 3), Control” value is “(0.2)”.

As to `CCO[Si](C)(C)c1ccccc1` [phenyldimethylethoxysilane], the “trypsin-catalyzed hydrolysis and condensation (result in words)” value at trypsin [4] was “hydrolysed but not condensed”.

As to `C[Si]1(c2ccccc2)O[Si](C)(c2ccccc2)O[Si](C)(c2ccccc2)O[Si](C)(c2ccccc2)O1` (centres unmarked) [E, tetramethyltetraphenylcyclotetrasiloxane], on trypsin [3], the “Cyclic Area Percent, Tetramer (x = 4), Trypsin” value is reported as “(100)” and the “Cyclic Area Percent, Tetramer (x = 4), Control” value is “(100)”.

B1: porcine pancreas trypsin: porcine pancreatic trypsin (protein, UniProt P00761 9-231, looked up)
Trypsin: IVGGYTCAANSIPYQVSLNSGSHFCGGSLINSQWVVSAAHCYKSRIQVRLGEHNIDVLEGNEQFINAAKIITHPNFNGNTLDNDIMLIKLSSPATLNSRVATVSLPRSCAAAGTECLISGWGNTKSSGSSYPSLLQCLKAPVLSDSSCKSSYPGQITGNMICVGFLEGGKDSCQGDSGGPVVCNGQLQGIVSWGYGCAQKNKPGVYTKVCNYVNWIQQTIAAN
Take B1: in test [5], the “increase of yield of the condensation of trimethylsilanol with calcium” value is 125%; the “hydrolysis of trimethylethoxysilane and condensation of trimethylsilanol (result in words)” value is recorded as “catalysed the complete hydrolysis”. The “hydrolysis of trimethylethoxysilane and condensation of trimethylsilanol (result in words)” value in test [5] (listed as trypsin from porcine pancreas) is “observed to catalyse the hydrolysis and condensation reactions”.

B2: recombinant bovine trypsin: Recombinant bovine trypsin expressed in maize (protein, UniProt P00760 24-246, looked up)
Serine protease 1: T1 sequence (P00760 24-246)
modifications: expressed in maize
Take B2: in test [5], the “increase of yield of the condensation of trimethylsilanol with calcium” value is 65%; the “hydrolysis of trimethylethoxysilane and condensation of trimethylsilanol (result in words)” value was “catalysed the complete hydrolysis”.

B3: Candida antarctica lipase B: Candida antarctica lipase B immobilized on acrylic resin beads (protein, UniProt P41365 26-342, looked up)
Lipase B: LPSGSDPAFSQPKSVLDAGLTCQGASPSSVSKPILLVPGTGTTGPQSFDSNWIPLSTQLGYTPCWISPPPFMLNDTQVNTEYMVNAITALYAGSGNNKLPVLTWSQGGLVAQWGLTFFPSIRSKVDRLMAFAPDYKGTVLAGPLDALAVSAPSVWQQTTGSALTTALRNAGGLTQIVPTTNLYSATDEIVQPQVSNSPLDSSYLFNGKNVQAQAVCGPLFVIDHAGSLTSQFSYVVGRSALRSTTGQARSADYGITDCNPLPANDLTPEQKVAAAALLAPAAAAIVAGPKQNCEPDLMPYARPFAVGKRTCSGIVTP
modifications: immobilized on acrylic resin
notes: Candida antarctica lipase B immobilized on acrylic resin beads
Consider B3, for which the “condensation of trimethylsilanol, Water” value in test [6] is “✓ (determined to catalyse the condensation of greater than ten times more trimethylsilanol than the negative control reactions; as well as, greater than three or ten times more trimethylsilanol than the BSA reactions in organic and aqueous media, respectively)”.

B4: Rhizomucor miehei lipase: fungal lipase (protein, UniProt P19515 95-363, looked up)
Lipase: SIDGGIRAATSQEINELTYYTTLSANSYCRTVIPGATWDCIHCDATEDLKIIKTWSTLIYDTNAMVARGDSEKTIYIVFRGSSSIRNWIADLTFVPVSYPPVSGTKVHKGFLDSYGEVQNELVATVLDQFKQYPSYKVAVTGHSLGGATALLCALDLYQREEGLSSSNLFLYTQGQPRVGDPAFANYVVSTGIPYRRTVNERDIVPHLPPAAFGFLHAGEEYWITDNSPETVQVCTSDLETSDCSNSIVPFTSVLDHLSYFGINTGLCT
For B4, the “condensation of trimethylsilanol, Water” value in test [6] is “✓ (determined to catalyse the condensation of greater than ten times more trimethylsilanol than the negative control reactions; as well as, greater than three or ten times more trimethylsilanol than the BSA reactions in organic and aqueous media, respectively)”.

The values above are taken from patent US7455998B2, “Methods for forming structurally defined organic molecules” (Dow Corning Corporation, priority 2004, dated 2008).
